Patent US11241417B2, “Compositions and methods for the treatment and prevention of neurological disorders” (Yumanity Therapeutics, Inc., priority 2018, dated 2022)
“Also recorded” adds a separate entry of the source.

Tests used:
Type in all cases: cell-based
TDP-43-expressing yeast = assay: Yeast TDP-43 model viability (resazurin-reduction endpoint); settings: 2-fold serial dilution applied for 24 hours
Method: (§1) (FIG. 1A) Structure of the Erg11 inhibitor and anti-fungal, fluconazole. […] A 2-fold serial dilution of fluconazole was applied to TDP-43-expressing yeast for 24 hours prior to analysis. (FIG. 1C) Wild-type yeast cultures were treated with fluconazole for eight hours prior to HPLC analysis for lanosterol and ergosterol. Data are expressed as the area under the curve (AUC) normalized to cell mass based on optical density of cultures at 600 nm.
The toxic gain of function features of TDP-43 can be faithfully recapitulated in the simple model organism, budding yeast, where the protein also localizes to stress granules. […] The yeast model thus provides a robust cell-based screening platform for small molecules capable of ameliorating toxicity. To validate compounds from such phenotypic screens, it is imperative to test compounds in a mammalian neuronal context. In an effort to develop TDP-43-related mammalian models of neuron loss that occurs in ALS and FTD, primary cultures of rat cortical neurons were transfected with human wild type or Q331K mutant TDP-43. These cells were compared to cells which received an empty expression vector control. […] In the experiments described in this example, this model system is used to interrogate new therapeutic approaches to ameliorate TDP-43 toxicity.
Fluconazole is an antifungal known to inhibit Erg11, the yeast lanosterol 14-alpha demethylase (FIG. 1B). […]

Erg11 = assay: HPLC analysis for lanosterol and ergosterol in fluconazole-treated wild-type yeast cultures; settings: wild-type yeast cultures treated for eight hours, normalized to optical density at 600 nm
Method: as §1
Fluconazole is an antifungal known to inhibit Erg11, the yeast lanosterol 14-alpha demethylase (FIG. 1B). […] CYP51A1 has also been known as lanosterol 14-alpha demethylase, which describes its function in removing the 14-alpha-methyl group from lanosterol to generate 4,4-dimethylcholesta-8(9),14,24-trien-3β-ol, which is a critical step in the cholesterol biosynthetic pathway.

[1] = tested on: primary rat cortical neurons transfected with wild-type TDP-43; assay: Survival of primary rat cortical neurons transfected with wild-type TDP-43; settings: rat primary cortical neurons co-transfected with RFP and wild-type human TDP-43; titration of compound; cox regression
Method: (§2) Rat primary cortical neurons were co-transfected with a red fluorescent protein (RFP) as a morphological marker and either control (empty vector) or wild-type TDP-43 expression plasmids and treated with vehicle (DMSO) or a titration of compound (3). (FIG. 3A) Risk of neuron death plots. The lifetime of each neuron was determined by either loss of RFP signal or morphological indicators of death such as loss of neurites and cell blebbing and used to generate cumulative hazard plots of risk of death over time (hrs) post-transfection. (FIG. 3B) Forest plots. Hazard ratios for each treatment group (relative to TDP-43 DMSO group) were determined by cox regression analysis and used to generate forest plots. […] P, p-value.
Rat primary cortical neurons were co-transfected with a red fluorescent protein (RFP) as a morphological marker and either control (empty vector) or wild type TDP-43 expression plasmids and treated with vehicle (DMSO) or a titration of compound (4). […] The lifetime of each neuron was determined by either loss of RFP signal or morphological indicators of death such as loss of neurites and cell blebbing and used to generate cumulative hazard plots of risk of death over time (hrs) post-transfection. […] Hazard ratios for each treatment group (relative to TDP-43 DMSO group) were determined by cox regression analysis and used to generate forest plots. […]

[2] = tested on: primary rat cortical neurons transfected with Q331K Mutant TDP-43; assay: Survival of primary rat cortical neurons transfected with Q331K mutant TDP-43; settings: rat primary cortical neurons co-transfected with RFP and Q331K mutant TDP-43; titration of compound; cox regression
Method: as §2, with “Q331K mutant” for “wild-type”, “4A)” for “3A)”, “4B)” for “3B)”
The toxic gain of function features of TDP-43 can be faithfully recapitulated in the simple model organism, budding yeast, where the protein also localizes to stress granules. […] The yeast model thus provides a robust cell-based screening platform for small molecules capable of ameliorating toxicity. To validate compounds from such phenotypic screens, it is imperative to test compounds in a mammalian neuronal context. In an effort to develop TDP-43-related mammalian models of neuron loss that occurs in ALS and FTD, primary cultures of rat cortical neurons were transfected with human wild type or Q331K mutant TDP-43. […]

Row | SMILES | viability of TDP-43-expressing yeast (TDP-43-expressing yeast) | ergosterol (AUC normalized to cell mass) (Erg11) | lanosterol (AUC normalized to cell mass) (Erg11) | neuron survival (risk of neuron death, hazard ratio relative to TDP-43 DMSO group) [1] | neuron survival (risk of neuron death, hazard ratio relative to TDP-43 DMSO group) [2]
1 | OC(Cn1cncn1)(Cn1cncn1)c1ccc(F)cc1F [Fluconazole] | restored viability; also recorded: rescues viability | reduces ergosterol | increase in the Erg11 substrate, lanosterol |  | 
2 | CCCN(CCc1ccc(Cl)c(Cl)c1)CC(O)c1cccnc1 (stereo not drawn) [compound (3)] |  |  |  | reduction in survival was partially alleviated; also recorded: promotes survival | promotes survival
3 | O=C(N[C@@H](Cc1ccc(F)cc1)C(=O)N1CCC(O)CC1)c1cc2cc(Cl)ccc2[nH]1 [compound (4)] |  |  |  | promotes survival | 
